For one data set, the target named is NMDA receptor. Type of data set: binding.
The nature of another data set: in vitro. The settings on record: Frings audiogenic, mouse.

Each structure is given as a SMILES string. Where a SMILES comes first, the peptide text is derived from it. [ ]: non-standard residue; d: D form. Gla = N[C@@H](CC(C(=O)O)C(=O)O)C(=O)O

At NMDA receptor, `CC[C@H](C)[C@H](NC(=O)[C@H](CC(C)C)NC(=O)[C@H](C)NC(=O)[C@H](CCC(N)=O)NC(=O)[C@H](CC(N)=O)NC(=O)[C@H](C)NC(=O)[C@H](CCC(N)=O)NC(=O)[C@H](CC(C)C)NC(=O)[C@H](CC(C(=O)O)C(=O)O)NC(=O)[C@H](CC(C(=O)O)C(=O)O)NC(=O)[C@H](CCC(=O)O)NC(=O)CN)C(N)=O` [(A^7,10)1-12] (H-GE[Gla][Gla]LQANQALI-NH2; N-terminus assumed) registered an IC50 of 300 nM. Still for that read-out and setting: to `CC[C@H](C)[C@H](NC(=O)[C@H](CC(C)C)NC(=O)[C@H](C)NC(=O)[C@H](CCC(N)=O)NC(=O)[C@H](CC(N)=O)NC(=O)[C@H](C)NC(=O)[C@H](CCC(N)=O)NC(=O)[C@H](CC(C)C)NC(=O)[C@H](CC(C(=O)O)C(=O)O)NC(=O)[C@H](CC(C(=O)O)C(=O)O)NC(=O)[C@H](CCC(=O)O)NC(=O)CN)C(=O)N[C@@H](CCCNC(=N)N)C(N)=O` [(A^7,10)1-13] (H-GE[Gla][Gla]LQANQALIR-NH2; N-terminus assumed) belongs 253 nM; to `CC[C@H](C)[C@H](NC(=O)[C@H](CC(C)C)NC(=O)[C@H](Cc1ccc(O)cc1)NC(=O)[C@H](CCC(N)=O)NC(=O)[C@H](CC(N)=O)NC(=O)[C@H](C)NC(=O)[C@H](CCC(N)=O)NC(=O)[C@H](CC(C)C)NC(=O)[C@H](CC(C(=O)O)C(=O)O)NC(=O)[C@H](CC(C(=O)O)C(=O)O)NC(=O)[C@H](CCC(=O)O)NC(=O)CN)C(=O)N[C@@H](CCCNC(=N)N)C(=O)N[C@@H](CC(C(=O)O)C(=O)O)C(=O)N[C@@H](CCCCN)C(=O)N[C@@H](CO)C(=O)N[C@@H](CC(N)=O)C(N)=O` [A^7,Y^10] (H-GE[Gla][Gla]LQANQYLIR[Gla]KSN-NH2; N-terminus assumed), 79 nM. Turning to `CC[C@H](C)[C@H](NC(=O)[C@H](CC(C)C)NC(=O)[C@H](CCC(=O)O)NC(=O)[C@H](CCC(N)=O)NC(=O)[C@H](CC(N)=O)NC(=O)[C@H](CCC(=O)O)NC(=O)[C@H](CCC(N)=O)NC(=O)[C@H](CC(C)C)NC(=O)[C@H](CCC(=O)O)NC(=O)[C@H](CCC(=O)O)NC(=O)[C@H](CCC(=O)O)NC(=O)CN)C(=O)N[C@@H](CCCNC(=N)N)C(=O)N[C@@H](CCC(=O)O)C(=O)N[C@@H](CCCCN)C(=O)N[C@@H](CO)C(=O)N[C@@H](CC(N)=O)C(N)=O` [ECon G], the half-life in “in vitro” (brain homogenate) was 1.6 min; in the data set “in vitro” (tissue homogenate) it was 0.425 min. Compound `CC[C@H](C)[C@H](NC(=O)[C@H](CC(C)C)NC(=O)[C@H](CC(C(=O)O)C(=O)O)NC(=O)[C@H](CCC(N)=O)NC(=O)[C@H](CC(N)=O)NC(=O)[C@H](CC(C(=O)O)C(=O)O)NC(=O)[C@H](CCC(N)=O)NC(=O)[C@H](CC(C)C)NC(=O)[C@H](CCC(=O)O)NC(=O)[C@H](CC(C(=O)O)C(=O)O)NC(=O)[C@H](CCC(=O)O)NC(=O)CN)C(=O)N[C@@H](CCCNC(=N)N)C(=O)N[C@@H](CC(C(=O)O)C(=O)O)C(=O)N[C@@H](CCCCN)C(=O)N[C@@H](CO)C(=O)N[C@@H](CC(N)=O)C(N)=O` [E^4] came in with a half-maximal inhibitory concentration (IC50) on NMDA receptor not below 20000 nM.
